Reference: PubChem BioAssay (NCI)
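Where inhibition never reached the appropriate level, the endpoint shown equals the highest concentration tested. Otherwise, values were interpolated linearly from a five-concentration, 48-hour dose response in 96-well plates. TGI: concentration producing complete growth inhibition.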

Tests used:
Assay in all cases: NCI anticancer screen, dose series, 48 h
786-0 renal = system: 786-0 renal
A498 renal = system: A498 renal
A549 NSCLC = system: A549 NSCLC
ACHN renal = system: ACHN renal
BT-549 breast = system: BT-549 breast
CAKI-1 renal = system: CAKI-1 renal
DU-145 prostate = system: DU-145 prostate
EKVX NSCLC = system: EKVX NSCLC
HCC-2998 colon = system: HCC-2998 colon
HCT-116 colon = system: HCT-116 colon
HCT-15 colon = system: HCT-15 colon
HOP-62 NSCLC = system: HOP-62 NSCLC
HOP-92 NSCLC = system: HOP-92 NSCLC
HS 578T breast = system: HS 578T breast
HT29 colon = system: HT29 colon
IGROV1 ovarian = system: IGROV1 ovarian
K-562 leukemia = system: K-562 leukemia
KM12 colon = system: KM12 colon
LOX IMVI melanoma = system: LOX IMVI melanoma
M14 melanoma = system: M14 melanoma
MALME-3M melanoma = system: MALME-3M melanoma
MCF7 breast = system: MCF7 breast
MDA-MB-231 breast = system: MDA-MB-231 breast
MDA-MB-435 = system: MDA-MB-435
NCI-H23 lung = system: NCI-H23 lung
NCI-H460 lung = system: NCI-H460 lung
NCI-H522 lung = system: NCI-H522 lung
NCI/ADR-RES ovarian = system: NCI/ADR-RES ovarian
OVCAR-3 ovarian = system: OVCAR-3 ovarian
OVCAR-4 ovarian = system: OVCAR-4 ovarian
OVCAR-5 ovarian = system: OVCAR-5 ovarian
OVCAR-8 ovarian = system: OVCAR-8 ovarian
PC-3 prostate = system: PC-3 prostate
RPMI-8226 leukemia = system: RPMI-8226 leukemia
RXF 393 renal = system: RXF 393 renal
SF-268 CNS = system: SF-268 CNS
SF-295 CNS = system: SF-295 CNS
SK-MEL-2 melanoma = system: SK-MEL-2 melanoma
SK-MEL-28 melanoma = system: SK-MEL-28 melanoma
SK-MEL-5 melanoma = system: SK-MEL-5 melanoma
SK-OV-3 ovarian = system: SK-OV-3 ovarian
SN12C renal = system: SN12C renal
SNB-19 CNS = system: SNB-19 CNS
SNB-75 CNS = system: SNB-75 CNS
SR leukemia = system: SR leukemia
SW-620 colon = system: SW-620 colon
T-47D breast = system: T-47D breast
TK-10 renal = system: TK-10 renal
U251 CNS = system: U251 CNS
UACC-257 melanoma = system: UACC-257 melanoma
UACC-62 melanoma = system: UACC-62 melanoma
UO-31 renal = system: UO-31 renal

Measured: TGI

CC(C)(CC1(C)NC(=O)NC1=O)OCc1ccccc1 (configuration not stated)
> 100 µM: all assays above
